Results on 26 compounds are retold here after paper PMC11676875, “In Vitro Screening of an In-House Library of Structurally Distinct Chemotypes Towards the Identification of Novel SARS-CoV-2 Inhibitors” (Pharmaceuticals, 2024).

In data set [1] the test system is SARS-CoV-2. Kind of data set: microbe, parasite or virus in culture. The format is cell-based, SARS-CoV-2 B1.1 lineage. As to conditions: for IC50: Severe acute respiratory syndrome coronavirus 2, Vero C1008, 72 h, read-out: SARS-CoV-2 IC50.
Another data set can be described thus: in vitro. The settings on record: monkey.
On the set-up of data set [2]: method as in PMID 34116325. As to conditions: cited from earlier work.
Details of data set [3]: method as in PMID 29194347, PMID 37238706. As to conditions: cited from earlier work.
For data set [4] the following is noted: mice, i.p.; cited from earlier work.
For data set [5] the following is noted: microsomes and hepatocytes of different species; cited from earlier work.
For data set [6] the following is noted: non-human primates; cited from earlier work.
The test system of a further data set is Dengue virus type 2. In words: Activity against Dengue virus type 2 (unpublished results). The format is cell-based.
Data set [7] has as its target α4β2 subtype of the nicotinic receptor. More on the design: method as in PMID 12088062. As to conditions: cited from earlier work.
Data set [8] concerns SARS-CoV-2. The settings on record: reference compound; cited from earlier work.
Data set [9] has as its system SARS-CoV-2. More on the design: method as in PMID 37367224. The settings on record: lung epithelium cell line; cited from earlier work.
Data set [10] has as its system SARS-CoV-2. As to conditions: read-out: IC50 against SARS-CoV-2; cited from earlier work.

Molecules are shown by their SMILES. Where two headings read alike, the source gives them in different places.

For `CCN(CC)CCCC(C)Nc1ccnc2cc(Cl)ccc12` (stereo not shown) [CQ, chloroquine, reference compound], the IC50 (as a rule, the concentration that inhibits the measured activity by half) in the data set on SARS-CoV-2 [1] amounted to 8.5 µM. The same compound had a CC50 in “in vitro” of 96.3 µM.

With `Clc1ccc(Nc2cc3nc4ccccc4n(-c4ccc(Cl)cc4)c-3cc2=NCC2CCCN3CCCCC23)cc1` (stereo not shown) [Compound 1], in the data set with SARS-CoV-2 [1], the “SAR analysis summary of anti-SARS-CoV-2 activity” value (shortened to “SAR analysis summary”) is “Inactive/ Cytotoxic” and the IC50 was above 2 µM. Further, the CC50 in the data set “in vitro” was found to be 3.14 µM.

With `Cc1ccc(Nc2cc3nc4ccccc4n(-c4ccc(C)cc4)c-3cc2=NCC2CCCN3CCCCC23)cc1` (stereo not shown) [Compound 2], the IC50 with SARS-CoV-2 [1] stood at 1.5 µM. The compound further returned a CC50 in the data set “in vitro” of 2.81 µM.

As for `c1ccc(Nc2cc3nc4ccccc4n(-c4ccccc4)c-3cc2=NCCCCC23CCCCN2CCCC3)cc1` [Compound 3], the IC50 in the data set on SARS-CoV-2 [1] is 4 µM. The CC50 in “in vitro” was 10.5 µM.

With `Fc1ccc(Nc2cc3nc4ccccc4n(-c4ccc(F)cc4)c-3cc2=NCCCCC23CCCCN2CCCC3)cc1` [Compound 4], in the data set on SARS-CoV-2 [1], the “SAR analysis summary” value is recorded as “Inactive/ Cytotoxic” and the IC50 is above 1 µM. This compound displayed a CC50 in “in vitro” of 2.19 µM.

`c1ccc(Nc2cc3nc4ccccc4n(-c4ccccc4)c-3cc2=NCC23CCCN2CCC3)cc1` [Compound 5]: in the data set with SARS-CoV-2 [1], the “SAR analysis summary” value is “Inactive/ Cytotoxic” and the IC50 is above 2 µM. The same compound came in with a CC50 in “in vitro” of 3.2 µM.

Turning to `Clc1ccc(Nc2cc3nc4ccccc4n(-c4ccc(Cl)cc4)c-3cc2=NCC23CCCN2CCC3)cc1` [Compound 6], in the data set with SARS-CoV-2 [1], the “SAR analysis summary” value was “Inactive/ Cytotoxic” and the IC50 was above 3 µM. In the data set “in vitro”, this compound registered a CC50 of 5.58 µM.

As to `CN1CCN(CCN=c2cc3n(-c4ccc(Cl)cc4)c4ccccc4nc-3cc2Nc2cccnc2)CC1` [Compound 7], the “SAR analysis summary” value in the data set with SARS-CoV-2 [1] was “Inactive/ Cytotoxic”. Also, in the data set with SARS-CoV-2 [1] (Severe acute respiratory syndrome coronavirus 2, Vero C1008, read-out: % inhibition of viral replication), the inhibition (as a rule, the drop in the measured response relative to a control, in per cent) at 1 µM was 20.5%. Further, the water solubility entry in [2] is “highly water soluble”. The same compound came in with a CC50 in “in vitro” of 2.62 µM.

Turning to `Clc1ccc(-n2c3cc(=NCCN4CCOCC4)c(Nc4cccnc4)cc-3nc3ccccc32)cc1` [Compound 8], the “SAR analysis summary” value with SARS-CoV-2 [1] is on record as “Inactive/ Cytotoxic”. The compound also displayed a CC50 in the data set “in vitro” of 1.74 µM.

Regarding `Clc1ccc(-n2c3cc(=NCCCN4CCCCC4)c(Nc4cccnc4)cc-3nc3ccccc32)cc1` [Compound 9], in the data set on SARS-CoV-2 [1], the “SAR analysis summary” value is on record as “Inactive/ Cytotoxic”. The CC50 in the data set “in vitro” worked out at 1.88 µM.

As to `Clc1ccc2c(NC[C@@H]3CCCN4CCCC[C@H]34)ccnc2c1` [Compound 10], the IC50 with SARS-CoV-2 [1] came to 2.2 µM. Besides, in data set [3], the oral bioavailability result was “excellent” and the volume of distribution result is reported as “high”. Also, in the data set “in vitro”, the CC50 was 44 µM. In addition, the “maximum tolerated dose, MTD” value in data set [4] is given as “greater than 100 mg/Kg”. Further, the metabolic stability entry in data set [5] was “good”.

Take `Clc1ccc2c(NCC34CCCN3CCC4)ccnc2c1` [Compound 11]: in the data set on SARS-CoV-2 [1], the half-inhibitory concentration (IC50) is 3.7 µM. Further, in [3], the oral bioavailability result is listed as “excellent” and the volume of distribution entry was “high”. The same compound yielded a CC50 in the data set “in vitro” of 74.5 µM. For the same compound, in data set [4], the “maximum tolerated dose, MTD” value is “greater than 100 mg/Kg”. Further, the “oral MTD” value in data set [6] was 50 mg/kg/day. In addition, the metabolic stability entry in [5] is on record as “good”.

In the case of `CCN(CC)CCCn1c(Cc2ccccc2)nc2cc(/C(C)=N\NC(N)=O)ccc21` [Compound 12], in the data set on SARS-CoV-2 [1], the “SAR analysis summary” value is “Inactive/ Cytotoxic” and the IC50 was above 100 µM. In addition, the CC50 in the data set “in vitro” was above 100 µM.

Regarding `CCN(CC)CCCn1c(Cc2ccccc2)nc2cc(C(C)=NNC(N)=S)ccc21` [Compound 13], the IC50 in the data set on SARS-CoV-2 [1] turned out to be 20 µM. In the data set “in vitro”, the CC50 worked out at 96.1 µM.

As to `CC(=NNC(N)=S)c1ccc2c(c1)nc(Cc1ccccc1)n2C[C@@H]1CCCN2CCCC[C@H]12` [Compound 14, 2-(1-{2-Benzyl-1-[((1S,9aR)-octahydro-2H-quinolizin-1-yl)methyl]-1H-benzo[d]imidazol-5-yl}-ethylidene)hydrazine-1-carbothioamide], the IC50 in the data set with SARS-CoV-2 [1] amounted to 12.2 µM. Further, the CC50 in the data set “in vitro” worked out at 70 µM.

For the compound `CCN(CC)CCCn1c(Cn2nnc3ccccc32)nc2cc(C(C)=NNC(N)=S)ccc21` [Compound 15, 2-(1-{2-[(1H-Benzo[d][1,2, 3]triazol-1-yl)methyl]-1-[3-(N,N-diethylamino)propyl]-1H-benzo-[d]imidazol-5-yl}ethylidene)hydrazine-1-carbothioamide], the IC50 with SARS-CoV-2 [1] was 14.9 µM. The CC50 in the data set “in vitro” came to 67.1 µM.

Regarding `CCN(CC)CCCn1c(Cn2nnc3ccccc32)nc2cc(Cl)ccc21` [Compound 18], the IC50 in the data set on SARS-CoV-2 [1] is 28.1 µM. Moreover, in “in vitro”, the CC50 is 107 µM.

In the case of `Cc1ccc2c(c1)nc(Cn1nnc3ccccc31)n2CC[C@@H]1CCCN2CCCC[C@H]12` [Compound 19], the half-maximal inhibitory concentration (IC50) in the data set with SARS-CoV-2 [1] is 15.3 µM. Moreover, the CC50 in “in vitro” is 76.3 µM.

In the case of `Clc1ccc2c(c1)nc(Cn1nnc3ccccc31)n2CC[C@@H]1CCCN2CCCC[C@H]12` [Compound 20], in the data set on SARS-CoV-2 [1], the IC50 turned out to be 6.95 µM. In addition, the CC50 in the data set “in vitro” turned out to be 19.4 µM.

Consider `Oc1ccc(-n2nc3ccc(C(F)(F)F)cc3n2)cc1` [Compound 21], for which, in the data set with SARS-CoV-2 [1], the “activity against SARS-CoV-2” value is recorded as “no activity” and the IC50 is above 20 µM. Besides, the IC50 with Dengue virus type 2 worked out at 17 µM. Besides, the CC50 in “in vitro” amounted to 25.4 µM.

Consider `CN1CCCC1=CN=Nc1cccc(Br)c1` [Compound 22], for which, in the data set with SARS-CoV-2 [1], the “activity against SARS-CoV-2” value is “no activity”. The IC50 was above 20 µM in the data set on SARS-CoV-2 [1] and 24 µM with Dengue virus type 2. The CC50 in the data set “in vitro” stood at 26.8 µM.

In the case of `O=c1cccc2n1CC1CC2CN(C(=S)NC2CCCCC2)C1` (stereo not shown) [Compound 23], in the data set with SARS-CoV-2 [1], the IC50 is 95.6 µM. The Ki (in general, the dissociation constant of the complex between target and ligand, obtained from inhibition or displacement) in data set [7] is 2300 nM. Also, the CC50 in the data set “in vitro” was above 100 µM.

Regarding `CC(=O)Oc1ccccc1C(=O)Oc1ccc(-c2cc(=S)ss2)cc1` [Compound 24], in the data set with SARS-CoV-2 [1], the “activity against SARS-CoV-2” value was “no activity” and the IC50 was above 10 µM. In the data set “in vitro”, the CC50 was 32.9 µM.

On to `CC(=O)/C=C(/C)Nc1cccc2c3c([nH]c12)CCCC3` [Compound 25], for which the half-maximal inhibitory concentration (IC50) in the data set on SARS-CoV-2 [1] was 90.1 µM. In addition, the CC50 in “in vitro” was above 100 µM.

`CC(C)/N=c1\cc2n(-c3ccc(Cl)cc3)c3ccccc3nc-2cc1Nc1ccc(Cl)cc1` [clofazimine]: in the data set with SARS-CoV-2 [8], the IC50 is 310 nM. Further, in the data set with SARS-CoV-2 [9], the “reduction in viral RNA load” value is on record as 25%.

Consider `CCN(CCO)CCCC(C)Nc1ccnc2cc(Cl)ccc12` (stereo not shown) [hydroxychloroquine], for which, in the data set with SARS-CoV-2 [10], the IC50 was 720 nM.
